Key:
[1] = Determination of the microsomal half-life / microsomal clearance, rat; type: in vitro ADME; conditions: rat liver microsomes, 0.5 μM test substance, 0.25 mg microsomal protein/ml, NADPH, 37° C.
Description: (§1) The metabolic stability of the compounds of the invention was determined in the following assay.
(§2) The test substances were incubated in a concentration of 0.5 μM as follows:
(§3) 0.5 μM test substance are preincubated together with liver microsomes from different species (from rat, human or other species) (0.25 mg of microsomal protein/ml) in 0.05 M potassium phosphate buffer of pH 7.4 in microtiter plates at 37° C. for 5 min. The reaction is started by adding NADPH (1 mg/mL). After 0, 5, 10, 15, 20 and 30 min, 50 μl aliquots are removed, and the reaction is immediately stopped and cooled with the same volume of acetonitrile. The samples are frozen until analyzed. The remaining concentration of undegraded test substance is determined by MSMS. The half-life (T½) is determined from the gradient of the signal of test substance/unit time plot, it being possible to calculate the half-life of the test substance, assuming first order kinetics, from the decrease in the concentration of the compound with time. The microsomal clearance (mCl) is calculated from mCl=ln 2/T½/(content of microsomal protein in mg/ml)×1000 [ml/min/mg] (modified from references: Di, The Society for Biomoleculur Screening, 2003, 453-462; Obach, DMD, 1999 vol 27. N 11, 1350-1359).

[2] = Determination of the microsomal half-life / microsomal clearance, human; type: in vitro ADME; conditions: human liver microsomes, 0.5 μM test substance, 0.25 mg microsomal protein/ml, NADPH, 37° C.
Description: as §1, §2, §3

hERG cardiac K+ channel = target: T1, hERG cardiac K+ channel (Homo sapiens, UniProt Q12809); assay: Blocking the hERG channel ([3H]dofetilide displacement); type: binding; conditions: membrane homogenate from HEK 293 cells expressing hERG
T1 construct: expressed in transfected cells; host or cells: HEK-293
Description: The binding affinity of test drugs for the hERG cardiac K^+ channel was determined by their ability to displace tritiated dofetilide (a class III antiarrhythmic drug and potent hERG blocker) in membrane homogenates from HEK-293 cells heterogeneously expressing the hERG channel. The assay was performed as previously described G. J. Diaz et al., Journal of Pharmacological and Toxicological Methods, 50 (2004), 187-199). For this, drug dilutions were prepared from 10 mM DMSO stocks and the following were added to a 96-well polystyrene plate (Perkin-Elmer Optiplate): 20 μl of assay binding buffer (for total bounds), or 1 μM astemizole (for non-specific bounds), or test drug, 50 μl of [^3H]dofetilide (20 nM, ˜80 Ci/mmol specific activity), and 130 μl of membrane homogenate from HEK 293 cells stably transfected with hERG K^+ channels (final protein concentration of 30 μg per well). The plates were incubated at ambient temperature for 45 min, aspirated onto GF/B filter plates (Perkin-Elmer), and washed with 2 ml of cold wash buffer. After allowing the plates to dry, 50 μl of scintillant (Perkin-Elmer MicroScint 20) were added to each well and the radioactivity was counted in a Perkin-Elmer Topcount NXT scintillation counter. IC50 determinations were calculated from competition curves using 6 drug concentrations, half-log apart, starting at a high concentration of 100 μM (final assay DMSO concentration=1%) using a four-parameter logistic equation. The results are given as IC50 value.

[3] = target: T2, human dopamine D3 receptors (Homo sapiens, UniProt P35462); assay: Receptor binding study, dopamine D3 receptor ([125I]-iodosulpride displacement); conditions: membranes of HEK-293 cells, 0.1 nM [125I]-iodosulpride, 25° C., 60 minutes
T2 construct: expressed in transfected cells; host or cells: HEK-293
Description: (§4) The substance to be tested was either dissolved in methanol/Chremophor® (BASF SE) or in dimethyl sulfoxide and then diluted with water to the desired concentration.
(§5) Each assay mixture was run in triplicate. • The incubation buffer contained 50 mM tris, 120 mM NaCl, 5 mM KCl, 2 mM CaCl2, 2 mM MgCl2 and 0.1% bovine serum albumin, 10 μM quinolone and 0.1% ascorbic acid (prepared fresh daily). […] Each assay mixture was run in triplicate. • The incubation buffer contained 50 mM tris, 120 mM NaCl, 5 mM KCl, 2 mM CaCl2, 2 mM MgCl2 and 0.1% bovine serum albumin. The buffer was adjusted to pH 7.4 with HCl. c) Measurement and Analysis: • After having been incubated at 25° C. for 60 minutes, the assay mixtures were filtered through a Whatman GF/B glass fiber filter under vacuum using a cell collecting device. The filters were transferred to scintillation viols using a filter transfer system. After 4 ml of Ultima Gold® (Packard) have been added, the samples were shaken for one hour and the radioactivity was then counted in a Beta-Counter (Packard, Tricarb 2000 or 2200CA).

[4] = target: T3, human dopamine D2L receptors (long isoform) (Homo sapiens, UniProt P14416); assay: Receptor binding study, dopamine D2L receptor ([125I]iodospiperone displacement), selectivity vs D3; conditions: selectivity ratio, HEK-293 membranes
T3 construct: expressed in transfected cells; host or cells: HEK-293
Description: as §4, §5

T1 sequence (Q12809 whole entry): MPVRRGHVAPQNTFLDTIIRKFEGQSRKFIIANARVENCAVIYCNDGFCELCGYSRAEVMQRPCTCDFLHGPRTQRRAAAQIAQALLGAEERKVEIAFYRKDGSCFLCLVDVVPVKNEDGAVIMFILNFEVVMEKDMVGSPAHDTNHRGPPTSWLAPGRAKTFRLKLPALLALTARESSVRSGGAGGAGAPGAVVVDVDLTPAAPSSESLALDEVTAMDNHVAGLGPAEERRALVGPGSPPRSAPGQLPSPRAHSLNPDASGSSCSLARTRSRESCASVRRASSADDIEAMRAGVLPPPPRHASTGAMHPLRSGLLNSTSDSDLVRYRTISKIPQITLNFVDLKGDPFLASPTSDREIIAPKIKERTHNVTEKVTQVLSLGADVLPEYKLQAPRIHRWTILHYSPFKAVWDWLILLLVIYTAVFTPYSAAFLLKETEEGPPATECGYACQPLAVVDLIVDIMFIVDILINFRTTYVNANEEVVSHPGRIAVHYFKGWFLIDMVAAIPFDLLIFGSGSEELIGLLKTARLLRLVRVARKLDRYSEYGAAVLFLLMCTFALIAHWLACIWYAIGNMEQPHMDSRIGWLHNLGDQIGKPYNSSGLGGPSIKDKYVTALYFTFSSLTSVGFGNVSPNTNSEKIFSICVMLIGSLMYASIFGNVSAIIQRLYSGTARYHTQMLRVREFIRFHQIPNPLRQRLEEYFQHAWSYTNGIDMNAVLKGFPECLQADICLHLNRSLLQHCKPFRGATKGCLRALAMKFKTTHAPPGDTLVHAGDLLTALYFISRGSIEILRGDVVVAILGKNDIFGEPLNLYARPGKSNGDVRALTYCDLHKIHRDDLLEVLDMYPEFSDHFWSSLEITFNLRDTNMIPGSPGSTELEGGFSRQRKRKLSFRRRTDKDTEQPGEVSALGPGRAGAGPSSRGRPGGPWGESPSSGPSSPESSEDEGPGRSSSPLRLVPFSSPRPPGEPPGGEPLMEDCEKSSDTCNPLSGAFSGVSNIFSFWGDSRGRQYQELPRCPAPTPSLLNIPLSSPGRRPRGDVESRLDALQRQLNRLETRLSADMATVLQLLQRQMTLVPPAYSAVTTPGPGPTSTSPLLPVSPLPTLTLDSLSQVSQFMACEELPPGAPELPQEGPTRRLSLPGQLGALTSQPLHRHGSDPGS
T3 sequence (P14416 whole entry, canonical isoform): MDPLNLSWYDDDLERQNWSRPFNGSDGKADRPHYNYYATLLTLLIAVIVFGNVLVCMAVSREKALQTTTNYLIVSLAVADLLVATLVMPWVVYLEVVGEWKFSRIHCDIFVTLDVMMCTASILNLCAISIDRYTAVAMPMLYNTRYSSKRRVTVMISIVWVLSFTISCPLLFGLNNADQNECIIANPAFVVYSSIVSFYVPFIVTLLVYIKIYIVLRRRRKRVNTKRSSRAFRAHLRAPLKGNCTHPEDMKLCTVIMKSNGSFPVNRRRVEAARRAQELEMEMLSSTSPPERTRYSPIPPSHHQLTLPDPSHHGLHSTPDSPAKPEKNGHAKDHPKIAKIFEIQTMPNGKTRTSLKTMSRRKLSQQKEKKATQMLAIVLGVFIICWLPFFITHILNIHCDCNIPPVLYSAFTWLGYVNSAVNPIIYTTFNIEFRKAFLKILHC
T2 sequence (P35462 whole entry): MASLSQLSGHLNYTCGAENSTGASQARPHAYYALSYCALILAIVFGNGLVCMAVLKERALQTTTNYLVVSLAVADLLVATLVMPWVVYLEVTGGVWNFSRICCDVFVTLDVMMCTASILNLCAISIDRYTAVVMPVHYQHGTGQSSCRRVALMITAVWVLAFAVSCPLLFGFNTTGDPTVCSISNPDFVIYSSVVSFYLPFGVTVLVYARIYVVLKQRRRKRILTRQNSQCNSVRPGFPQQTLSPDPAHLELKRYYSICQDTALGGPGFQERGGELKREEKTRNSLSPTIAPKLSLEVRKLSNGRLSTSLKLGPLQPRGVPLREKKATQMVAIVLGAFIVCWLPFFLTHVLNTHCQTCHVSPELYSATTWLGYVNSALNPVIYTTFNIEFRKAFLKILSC

CC(=O)N[C@H]1CC[C@H](CCN2CCN(c3cc(CCO)nc(C(C)(C)C)n3)CC2)CC1 [Compound 13, trans-N-[4-(2-{4-[2-tert-Butyl-6-(2-hydroxy-ethyl)-pyrimidin-4-yl]-piperazin-1-yl}-ethyl)-cyclohexyl]-acetamide]
Rat mCl [1]: + (+: 20-120 μl min^−1 mg^−1) | Human mCl [2]: + (+: 20-120 μl min^−1 mg^−1) | IC50 (hERG cardiac K+ channel): > 10 µM | Ki [3]: < 0.01 µM | D2/D3 (Ki (D2L)/Ki (D3)) [4]: +++ (+++>50)

Source: patent US9376396B2, “Acylaminocycloalkyl compounds suitable for treating disorders that respond to modulation of dopamine D3 receptor” (AbbVie Deutschland GmbH & Co. KG, priority 2012, dated 2016)
